Data: patent US9492471B2, “Methods of treating a disease or disorder associated with Bruton'S Tyrosine Kinase” (Celgene Avilomics Research, Inc., priority 2013, dated 2016)
Like-named read-outs stand apart in the source and are kept apart here.

How the values were obtained:
Test in all cases: HotSpot kinase profiling
Type in all cases: biochemical
[1] = target: T1, MST3/STK24 (Homo sapiens, UniProt Q9Y6E0)
T1 construct: purchased Reaction Biology Corp
Protocol: (§1) The binding assay system for profiling kinase activity were based upon HotSpot technology (Reaction Biology Corp.; Malvern, Pa., USA) and utilized radio-isotope-based P81 filtration. […] Substrates for the various kinases tested against Compound 2 (substrate information available on the Reaction Biology Corp. website) were prepared fresh daily in Reaction Buffer. Any required cofactors were then added to the substrate solution. The identification and selection of the appropriate cofactor for each kinase is within the ability of a person skilled in the art. See, for example, Handbook of Assay Development in Drug Discovery, Ed. Lisa K. Minor, 2006: CRC Press, Boca Raton, Fla.; Gao et al., “A broad activity screen in support of a chemogenomic map for kinase signalling research and drug discovery,” Biochem J. 2013, 451(2): 313-28; and Eglen et al., “Drug discovery and the human kinome: Recent trends,” Pharmacology & Therapeutics 2011, 130(2): 144-156. The kinase was then added to the substrate solution and gently mixed. […] This was followed by incubation at room temperature for 2 h. The reaction was terminated and any unreacted phosphate was washed away using 0.1% phosphoric acid prior to detection utilizing a proprietary technology. […] DMSO was used as the negative control.
(§2) Percent inhibition was expressed as an average where the assay was performed more than once, e.g., in duplicate.

[2] = target: T2, P70S6K/RPS6KB1 (Homo sapiens, UniProt P23443)
T2 construct: purchased Reaction Biology Corp
Protocol: as §1, §2

[3] = target: T3, CDK1/cyclin A (Homo sapiens, UniProt P06493)
T3 construct: purchased Reaction Biology Corp
Protocol: as §1, §2

[4] = target: T4, FER (Homo sapiens, UniProt P16591)
T4 construct: purchased Reaction Biology Corp
Protocol: as §1, §2

[5] = target: T5, PAK3 (Homo sapiens, UniProt O75914)
T5 construct: purchased Reaction Biology Corp
Protocol: as §1, §2

[6] = target: T6, RIPK2 (Homo sapiens, UniProt O43353)
T6 construct: purchased Reaction Biology Corp
Protocol: as §1, §2

[7] = target: T7, RSK1 (Homo sapiens, UniProt Q15418)
T7 construct: purchased Reaction Biology Corp
Protocol: as §1, §2

[8] = target: T8, MSK1/RPS6KA5 (Homo sapiens, UniProt O75582)
T8 construct: purchased Reaction Biology Corp
Protocol: as §1, §2

[9] = target: T9, PKCeta (Homo sapiens, UniProt P24723)
T9 construct: purchased Reaction Biology Corp
Protocol: as §1, §2

[10] = target: T10, CLK4 (Homo sapiens, UniProt Q9HAZ1)
T10 construct: purchased Reaction Biology Corp
Protocol: as §1, §2

[11] = target: T11, CDK2/cyclin A1 (Homo sapiens, UniProt P24941)
T11 construct: purchased Reaction Biology Corp
Protocol: as §1, §2

[12] = target: T12, ABL1 (Homo sapiens, UniProt P00519)
T12 construct: purchased Reaction Biology Corp
Protocol: as §1, §2

[13] = target: T13, EPHA7 (Homo sapiens, UniProt Q15375)
T13 construct: purchased Reaction Biology Corp
Protocol: as §1, §2

[14] = target: T14, JAK2 (Homo sapiens, UniProt O60674)
T14 construct: purchased Reaction Biology Corp
Protocol: as §1, §2

[15] = target: T15, TNK1 (Homo sapiens, UniProt Q13470)
T15 construct: purchased Reaction Biology Corp
T15 sequence (Q13470 1-666): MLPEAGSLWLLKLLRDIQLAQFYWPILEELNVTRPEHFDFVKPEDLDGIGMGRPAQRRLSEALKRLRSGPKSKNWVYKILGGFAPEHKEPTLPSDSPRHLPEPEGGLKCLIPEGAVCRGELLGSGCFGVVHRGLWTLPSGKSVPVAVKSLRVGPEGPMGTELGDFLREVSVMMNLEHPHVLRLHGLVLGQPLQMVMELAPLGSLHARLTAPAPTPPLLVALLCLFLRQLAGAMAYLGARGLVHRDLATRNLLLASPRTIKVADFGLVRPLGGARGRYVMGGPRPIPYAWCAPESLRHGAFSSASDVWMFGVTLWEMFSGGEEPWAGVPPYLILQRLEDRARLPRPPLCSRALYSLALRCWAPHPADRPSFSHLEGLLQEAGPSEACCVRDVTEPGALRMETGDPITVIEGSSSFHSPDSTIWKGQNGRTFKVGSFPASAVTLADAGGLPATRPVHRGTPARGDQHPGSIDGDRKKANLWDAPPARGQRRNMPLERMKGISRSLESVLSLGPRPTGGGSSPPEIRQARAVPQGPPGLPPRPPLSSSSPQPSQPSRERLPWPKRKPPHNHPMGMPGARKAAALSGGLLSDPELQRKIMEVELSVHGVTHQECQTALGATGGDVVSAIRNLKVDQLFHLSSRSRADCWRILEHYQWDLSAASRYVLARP
Protocol: as §1, §2

[16] = read-out: % Enzyme Activity (relative to DMSO controls) Run 1
[17] = read-out: % Enzyme Activity (relative to DMSO controls) Run 2

T3 sequence (P06493 whole entry): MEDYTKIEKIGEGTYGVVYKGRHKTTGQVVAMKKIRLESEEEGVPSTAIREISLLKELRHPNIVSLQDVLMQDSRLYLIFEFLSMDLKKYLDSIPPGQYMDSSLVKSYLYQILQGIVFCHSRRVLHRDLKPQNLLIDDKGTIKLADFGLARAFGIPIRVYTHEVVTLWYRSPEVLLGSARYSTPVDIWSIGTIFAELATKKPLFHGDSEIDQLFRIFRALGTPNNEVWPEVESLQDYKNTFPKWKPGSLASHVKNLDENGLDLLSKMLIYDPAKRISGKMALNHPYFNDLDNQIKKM
T3 sequence (P20248 whole entry partner): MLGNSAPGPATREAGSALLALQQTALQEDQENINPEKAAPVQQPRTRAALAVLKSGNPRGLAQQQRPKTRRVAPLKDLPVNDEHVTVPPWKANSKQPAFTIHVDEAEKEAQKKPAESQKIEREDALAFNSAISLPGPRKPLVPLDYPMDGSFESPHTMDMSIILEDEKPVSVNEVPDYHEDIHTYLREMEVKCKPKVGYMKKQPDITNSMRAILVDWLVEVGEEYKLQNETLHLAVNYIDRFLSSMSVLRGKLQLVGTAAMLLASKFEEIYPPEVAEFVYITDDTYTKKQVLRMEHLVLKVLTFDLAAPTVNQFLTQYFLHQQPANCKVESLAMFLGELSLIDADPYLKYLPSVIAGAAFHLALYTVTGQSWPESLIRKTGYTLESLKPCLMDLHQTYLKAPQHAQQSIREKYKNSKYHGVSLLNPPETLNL
T14 sequence (O60674 whole entry): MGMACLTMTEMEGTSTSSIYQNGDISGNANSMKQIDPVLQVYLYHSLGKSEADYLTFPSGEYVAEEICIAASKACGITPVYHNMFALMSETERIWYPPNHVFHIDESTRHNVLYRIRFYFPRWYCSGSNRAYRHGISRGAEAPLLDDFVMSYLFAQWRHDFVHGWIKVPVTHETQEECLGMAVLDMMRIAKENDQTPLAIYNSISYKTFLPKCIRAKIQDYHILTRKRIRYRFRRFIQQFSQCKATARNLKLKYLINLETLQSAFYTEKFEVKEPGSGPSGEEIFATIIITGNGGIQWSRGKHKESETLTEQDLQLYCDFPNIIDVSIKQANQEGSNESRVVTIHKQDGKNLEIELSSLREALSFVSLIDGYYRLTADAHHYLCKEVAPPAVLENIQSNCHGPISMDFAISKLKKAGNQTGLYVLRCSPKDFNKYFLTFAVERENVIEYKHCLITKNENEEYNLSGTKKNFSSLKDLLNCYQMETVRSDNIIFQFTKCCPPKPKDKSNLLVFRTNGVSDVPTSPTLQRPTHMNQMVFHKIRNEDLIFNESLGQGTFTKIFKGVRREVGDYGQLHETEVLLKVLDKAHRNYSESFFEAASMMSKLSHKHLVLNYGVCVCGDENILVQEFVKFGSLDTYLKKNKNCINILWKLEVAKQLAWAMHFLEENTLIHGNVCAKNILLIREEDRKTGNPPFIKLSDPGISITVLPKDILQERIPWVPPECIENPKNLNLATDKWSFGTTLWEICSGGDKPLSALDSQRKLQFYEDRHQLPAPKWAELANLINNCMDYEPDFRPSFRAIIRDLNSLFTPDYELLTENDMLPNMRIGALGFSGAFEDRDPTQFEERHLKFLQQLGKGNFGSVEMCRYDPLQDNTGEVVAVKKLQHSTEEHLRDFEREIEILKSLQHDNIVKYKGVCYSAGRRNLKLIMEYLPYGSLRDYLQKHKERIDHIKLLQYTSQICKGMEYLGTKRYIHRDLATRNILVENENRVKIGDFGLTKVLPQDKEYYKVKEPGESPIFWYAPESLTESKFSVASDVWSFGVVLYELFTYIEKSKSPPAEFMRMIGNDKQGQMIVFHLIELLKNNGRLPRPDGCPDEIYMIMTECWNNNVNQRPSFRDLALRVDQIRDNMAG
T2 sequence (P23443 whole entry): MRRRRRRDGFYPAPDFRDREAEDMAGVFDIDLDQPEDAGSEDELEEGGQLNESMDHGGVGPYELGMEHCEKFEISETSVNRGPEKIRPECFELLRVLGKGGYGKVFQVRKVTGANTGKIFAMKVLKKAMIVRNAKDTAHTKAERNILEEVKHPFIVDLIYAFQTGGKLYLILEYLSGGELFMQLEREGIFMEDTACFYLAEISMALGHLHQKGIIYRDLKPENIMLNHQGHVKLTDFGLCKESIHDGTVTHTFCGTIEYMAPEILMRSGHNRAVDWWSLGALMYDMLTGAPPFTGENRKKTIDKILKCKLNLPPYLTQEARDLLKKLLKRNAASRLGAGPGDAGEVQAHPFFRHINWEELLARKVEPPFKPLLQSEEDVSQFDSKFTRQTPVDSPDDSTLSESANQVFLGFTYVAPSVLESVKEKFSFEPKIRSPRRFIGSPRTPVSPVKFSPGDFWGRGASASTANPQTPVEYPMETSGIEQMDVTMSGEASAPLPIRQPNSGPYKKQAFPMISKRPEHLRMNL
T12 sequence (P00519 whole entry): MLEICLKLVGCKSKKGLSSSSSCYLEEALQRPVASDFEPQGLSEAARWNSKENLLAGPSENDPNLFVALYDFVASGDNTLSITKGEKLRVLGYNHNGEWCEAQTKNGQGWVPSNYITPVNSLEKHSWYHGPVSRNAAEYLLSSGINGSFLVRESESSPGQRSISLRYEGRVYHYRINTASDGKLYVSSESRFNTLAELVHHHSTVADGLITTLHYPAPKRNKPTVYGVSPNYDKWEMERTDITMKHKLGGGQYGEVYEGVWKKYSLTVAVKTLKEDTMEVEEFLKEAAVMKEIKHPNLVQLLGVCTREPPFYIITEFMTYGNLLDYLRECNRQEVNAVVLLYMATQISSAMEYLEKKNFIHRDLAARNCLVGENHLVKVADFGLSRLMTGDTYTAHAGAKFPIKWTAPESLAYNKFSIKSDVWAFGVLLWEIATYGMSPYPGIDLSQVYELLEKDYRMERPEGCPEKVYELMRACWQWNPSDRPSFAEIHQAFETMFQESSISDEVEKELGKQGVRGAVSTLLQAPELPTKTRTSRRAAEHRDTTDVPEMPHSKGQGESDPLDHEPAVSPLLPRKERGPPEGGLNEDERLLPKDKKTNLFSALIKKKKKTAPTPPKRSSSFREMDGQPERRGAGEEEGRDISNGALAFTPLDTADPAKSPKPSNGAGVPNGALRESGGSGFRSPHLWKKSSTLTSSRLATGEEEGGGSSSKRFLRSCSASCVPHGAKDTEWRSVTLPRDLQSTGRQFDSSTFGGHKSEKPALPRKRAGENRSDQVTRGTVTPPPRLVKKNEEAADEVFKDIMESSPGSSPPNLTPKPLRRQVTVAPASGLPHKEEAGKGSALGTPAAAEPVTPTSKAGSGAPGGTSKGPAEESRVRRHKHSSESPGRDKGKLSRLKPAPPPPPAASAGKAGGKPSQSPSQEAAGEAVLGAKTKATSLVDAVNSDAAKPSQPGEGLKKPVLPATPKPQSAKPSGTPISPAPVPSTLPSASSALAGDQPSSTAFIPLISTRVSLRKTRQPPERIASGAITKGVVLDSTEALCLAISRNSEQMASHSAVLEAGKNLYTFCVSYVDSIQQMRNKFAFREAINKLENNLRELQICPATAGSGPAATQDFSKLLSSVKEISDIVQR
T5 sequence (O75914 whole entry): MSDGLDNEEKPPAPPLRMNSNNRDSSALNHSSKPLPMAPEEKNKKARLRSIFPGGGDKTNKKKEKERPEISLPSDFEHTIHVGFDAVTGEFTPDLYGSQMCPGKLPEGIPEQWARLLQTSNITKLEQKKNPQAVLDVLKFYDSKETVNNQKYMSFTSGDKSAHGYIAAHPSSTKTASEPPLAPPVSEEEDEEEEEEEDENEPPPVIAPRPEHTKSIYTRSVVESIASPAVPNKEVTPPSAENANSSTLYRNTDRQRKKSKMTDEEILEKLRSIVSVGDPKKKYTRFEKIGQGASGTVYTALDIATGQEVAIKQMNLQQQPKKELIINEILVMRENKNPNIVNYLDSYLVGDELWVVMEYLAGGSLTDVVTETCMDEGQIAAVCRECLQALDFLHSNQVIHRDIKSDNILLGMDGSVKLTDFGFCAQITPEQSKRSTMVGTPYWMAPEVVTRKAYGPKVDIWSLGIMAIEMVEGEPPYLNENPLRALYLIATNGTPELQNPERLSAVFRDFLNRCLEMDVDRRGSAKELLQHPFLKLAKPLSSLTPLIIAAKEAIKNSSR
T8 sequence (O75582 whole entry): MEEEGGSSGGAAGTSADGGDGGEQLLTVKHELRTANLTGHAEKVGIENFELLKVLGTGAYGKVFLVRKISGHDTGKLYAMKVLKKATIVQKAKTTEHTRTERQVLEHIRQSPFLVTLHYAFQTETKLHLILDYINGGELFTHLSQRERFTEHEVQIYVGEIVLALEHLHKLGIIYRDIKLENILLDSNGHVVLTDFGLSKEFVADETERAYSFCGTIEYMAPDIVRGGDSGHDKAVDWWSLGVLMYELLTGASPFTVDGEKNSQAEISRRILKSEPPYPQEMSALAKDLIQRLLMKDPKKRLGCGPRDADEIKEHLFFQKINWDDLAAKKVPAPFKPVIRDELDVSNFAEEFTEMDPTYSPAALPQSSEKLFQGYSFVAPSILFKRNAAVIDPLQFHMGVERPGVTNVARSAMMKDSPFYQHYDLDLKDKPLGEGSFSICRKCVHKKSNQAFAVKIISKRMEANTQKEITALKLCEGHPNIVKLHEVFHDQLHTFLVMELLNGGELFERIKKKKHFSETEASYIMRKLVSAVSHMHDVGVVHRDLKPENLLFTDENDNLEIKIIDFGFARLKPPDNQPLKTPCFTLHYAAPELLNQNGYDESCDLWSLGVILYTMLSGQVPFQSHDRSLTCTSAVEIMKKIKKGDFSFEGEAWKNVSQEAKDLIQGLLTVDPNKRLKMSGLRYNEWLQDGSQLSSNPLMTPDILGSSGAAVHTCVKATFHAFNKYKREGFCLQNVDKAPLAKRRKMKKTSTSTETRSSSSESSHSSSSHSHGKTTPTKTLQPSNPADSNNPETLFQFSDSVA

## C=CC(=O)Nc1cccc(Nc2nc(Nc3ccc(OCCOC)c(F)c3)ncc2F)c1 [Compound 2]
[1]
  inhibition at 3 µM: 14.5%
[1]; [16]
  remaining activity at 3 µM: 86.6%
[1]; [17]
  remaining activity at 3 µM: 84.5%
[2]
  inhibition at 3 µM: 16.5%
[2]; [16]
  remaining activity at 3 µM: 85.9%
[2]; [17]
  remaining activity at 3 µM: 81%
[3]
  inhibition at 3 µM: -18%
[3]; [16]
  remaining activity at 3 µM: 112%
[3]; [17]
  remaining activity at 3 µM: 124%
[4]
  inhibition at 3 µM: 11.8%
[4]; [16]
  remaining activity at 3 µM: 88.1%
[4]; [17]
  remaining activity at 3 µM: 88.3%
[5]
  inhibition at 3 µM: 6.46%
[5]; [16]
  remaining activity at 3 µM: 91.9%
[5]; [17]
  remaining activity at 3 µM: 95.2%
[6]
  inhibition at 3 µM: 23.7%
[6]; [16]
  remaining activity at 3 µM: 77.6%
[6]; [17]
  remaining activity at 3 µM: 75%
[7]
  inhibition at 3 µM: 27.1%
[7]; [16]
  remaining activity at 3 µM: 73.3%
[7]; [17]
  remaining activity at 3 µM: 72.5%
[8]
  inhibition at 3 µM: 2.7%
[8]; [16]
  remaining activity at 3 µM: 94.9%
[8]; [17]
  remaining activity at 3 µM: 99.7%
[9]
  inhibition at 3 µM: -12.8%
[9]; [16]
  remaining activity at 3 µM: 109%
[9]; [17]
  remaining activity at 3 µM: 117%
[10]
  inhibition at 3 µM: 44.3%
[10]; [16]
  remaining activity at 3 µM: 57.4%
[10]; [17]
  remaining activity at 3 µM: 53.9%
[11]
  inhibition at 3 µM: 22%
[11]; [16]
  remaining activity at 3 µM: 78.2%
[11]; [17]
  remaining activity at 3 µM: 77.7%
[12]
  inhibition at 3 µM: 54.7%
[12]; [16]
  remaining activity at 3 µM: 45.4%
[12]; [17]
  remaining activity at 3 µM: 45.2%
[13]
  inhibition at 3 µM: 37.9%
[13]; [16]
  remaining activity at 3 µM: 60%
[13]; [17]
  remaining activity at 3 µM: 64.1%
[14]
  inhibition at 3 µM: -11.6%
[14]; [16]
  remaining activity at 3 µM: 109%
[14]; [17]
  remaining activity at 3 µM: 115%
[15]
  inhibition at 3 µM: 83.7%
[15]; [16]
  remaining activity at 3 µM: 15.9%
[15]; [17]
  remaining activity at 3 µM: 16.6%
